From US10881105B2, “Method for breaking dormancy in deciduous trees” (Tapazol Chemical Works Ltd., priority 2014, dated 2021)

Test system: Black Gem (P. nigra) plums
Test: Bud break assessment after spraying, dormancy release in black gem plums (Example 1)
Type: in vivo
Conditions: above 15 grams per liter oil; data not shown
Experimental: On the day in which spraying was initiated the number of accumulated chilling units was 14 (being equivalent of 200 hours of chilling). The trees were at a stage where 10% of the bulbs were swollen. Three branches facing different directions were selected in each tree. The upper 20 cm in each branch were examined Each branch contained approximately 13 buds. Each bud was evaluated for bud progression on three separate occasions and bud progression percentages were normalized across the examined branches [table] [table]

For `O=[N+]([O-])c1cc(C(F)(F)F)c(Cl)c([N+](=O)[O-])c1Nc1ncc(C(F)(F)F)cc1Cl` [fluazinam, 3-chloro-N-(3-chloro-5-trifluoromethyl-2-pyridyl)-α,α,α-trifluoro-2,6-dinitro-p-toluidine], the “efficacy of the composition versus concentration of Fluazinam in oil (regression)” value was “the efficacy of the composition decreased”.
